Data as given in patent US9181223B2, “2-aminopyrimidin-6-ones and analogs exhibiting anti-cancer and anti-proliferative activities” (Deciphera Pharmaceuticals, LLC, priority 2013, dated 2015).
Where two headings read alike, the source gives them in different places.

Legend:
[1] = target: T1, unphosphorylated PDGFRβ kinase (uPDGFRβ, Seq. ID No. 3) (Homo sapiens, UniProt P09619); assay: uPDGFRβ kinase assay (ADP production coupled to pyruvate kinase/lactate dehydrogenase); type: biochemical; details: enzymatic assay, ATP 500 μM
T1 construct: purchased DeCode
T1 sequence (P09619 557-1106): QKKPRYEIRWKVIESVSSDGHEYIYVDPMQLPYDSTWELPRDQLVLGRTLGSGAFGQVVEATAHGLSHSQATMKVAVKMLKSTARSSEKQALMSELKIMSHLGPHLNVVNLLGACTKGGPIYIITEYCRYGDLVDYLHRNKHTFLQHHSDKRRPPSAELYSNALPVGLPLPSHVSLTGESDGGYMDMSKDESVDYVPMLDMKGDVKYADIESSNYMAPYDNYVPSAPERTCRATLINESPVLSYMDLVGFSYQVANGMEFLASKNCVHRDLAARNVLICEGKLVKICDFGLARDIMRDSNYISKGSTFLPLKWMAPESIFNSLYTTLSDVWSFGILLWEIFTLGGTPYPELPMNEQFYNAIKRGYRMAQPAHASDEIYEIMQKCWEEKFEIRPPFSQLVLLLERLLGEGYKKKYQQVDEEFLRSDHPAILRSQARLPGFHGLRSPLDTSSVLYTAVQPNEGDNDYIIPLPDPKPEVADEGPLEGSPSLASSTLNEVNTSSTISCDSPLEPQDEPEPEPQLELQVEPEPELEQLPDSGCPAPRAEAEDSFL
Method: Unphosphorylated […]β) Kinase (Seq. ID No. 3) Assay Activity of unphosphorylated PDGFRβ kinase ([…] No. 3) was determined by following the production of ADP from the kinase reaction with ATP and poly E4Y as substrates through coupling with the pyruvate kinase/lactate dehydrogenase system (e.g., Schindler et al. Science (2000) 289: 1938-1942). In this assay, the oxidation of NADH (thus the decrease at A340 nm) was continuously monitored spectrophometrically. The reaction mixture (100 μL) contained PDGFRβ (DeCode, 15.7 nM), polyE4Y (2.5 mg/mL), MgCl2 (10 mM), pyruvate kinase (4 units), lactate dehydrogenase (0.7 units), phosphoenol pyruvate (1 mM) and NADH (0.28 mM) and ATP (500 μM) in a 90 mM Tris buffer containing 0.2% octyl-glucoside and 1% DMSO, at pH 7.5. The inhibition reaction was started by mixing serial diluted test compound with the above reaction mixture. The absorption at 340 nm was monitored continuously for 4 h at 30° C. on a Polarstar Optima or Synergy 2 plate reader. The reaction rate was calculated using the 1.5 to 2.5 h time frame. Percent inhibition was obtained by comparison of reaction rate with that of a control (i.e. with no test compound). IC50 values were calculated from a series of percent inhibition values determined at a range of inhibitor concentrations using software routines as implemented in the GraphPad Prism software package.

[2] = target: T2, unphosphorylated c-KIT kinase (uKIT, Seq. ID no. 2) (Homo sapiens, UniProt P10721); assay: uKit kinase assay (ADP production coupled to pyruvate kinase/lactate dehydrogenase); type: biochemical; details: read-out: uKIT
T2 construct: uKit with N-terminal GST fusion used for screening
T2 sequence (P10721 with tags, fused parts or gaps): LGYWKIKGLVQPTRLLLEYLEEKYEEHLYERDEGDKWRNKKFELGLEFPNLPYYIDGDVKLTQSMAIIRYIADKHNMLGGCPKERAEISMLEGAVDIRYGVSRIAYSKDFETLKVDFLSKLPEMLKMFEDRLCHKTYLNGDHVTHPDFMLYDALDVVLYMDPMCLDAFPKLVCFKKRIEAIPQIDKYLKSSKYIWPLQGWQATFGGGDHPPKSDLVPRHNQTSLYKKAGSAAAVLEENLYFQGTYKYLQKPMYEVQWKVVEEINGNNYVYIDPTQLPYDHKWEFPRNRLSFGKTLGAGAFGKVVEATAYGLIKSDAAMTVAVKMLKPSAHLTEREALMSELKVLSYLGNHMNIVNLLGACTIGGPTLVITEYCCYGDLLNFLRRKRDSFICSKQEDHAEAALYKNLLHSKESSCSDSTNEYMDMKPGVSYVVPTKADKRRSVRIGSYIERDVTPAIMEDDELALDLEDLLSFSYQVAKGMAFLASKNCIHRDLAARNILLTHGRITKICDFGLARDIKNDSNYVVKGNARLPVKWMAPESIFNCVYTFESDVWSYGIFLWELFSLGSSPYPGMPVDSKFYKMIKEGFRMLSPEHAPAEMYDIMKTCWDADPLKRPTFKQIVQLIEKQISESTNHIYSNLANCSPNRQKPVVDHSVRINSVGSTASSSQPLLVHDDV
Method: In this assay, the oxidation of NADH (thus the decrease at A340 nm) was continuously monitored spectrophometrically. […] The inhibition reaction was started by mixing serial diluted test compound with the above reaction mixture. The absorption at 340 nm was monitored continuously for 4 hours at 30° C. on Synergy 2 plate reader (BioTech).

[3] = tested on: osteoclast precursors; assay: Osteoclast tartrate-resistant acid phosphatase assay; type: cell-based; details: tartrate-resistant acid phosphatase activity, RANKL and M-CSF, 7-14 days
Method: Osteoclast Tartrate-Resistant Acid Phosphatase Assay
A serial dilution of test compound was dispensed into a 384-well black clear bottom plate (Nalge Nunc International, Rochester, N.Y.). Compound was diluted by the addition of DMEM media supplemented with 10% characterized fetal bovine serum (Invitrogen, Carlsbad, Calif.). Diluted compound was transferred to a 384-well black clear bottom plate. Two-thousand five hundred osteoclast precursors (Lonza, Walkersville, Md.) were added per well in growth media containing Receptor Activator of Nuclear Factor Kappa-beta ligand (RANKL) and M-CSF (R&D Systems, Minneapolis, Minn.). Plates were incubated for 7-14 days at 37 degrees Celsius, 5% CO2, and 95% humidity to allow differentiation of osteoclast precursors. At the end of the incubation period, 10 μL of supernatant from each well was transferred to a clear 384-well plate. Tartrate-resistant acid phosphatase activity in the supernatant samples was determined using an acid phosphatase assay kit (Sigma, St. Louis, Mo.). Absorbance was measured at 550 nm using a plate reader. Data was analyzed using Prism software (Graphpad, San Diego, Calif.) to calculate IC50 values.

Row | SMILES | IC50 [1] | IC50 ([2]; enzymatic assay, ATP 2000 μM) | IC50 [3] | IC50 [2]
1 | CCNc1ncc(-c2ccc(Oc3ccnc(-c4cnn(C)c4)c3)c(C)n2)c(=O)[nH]1 [Example 1, 2-(ethylamino)-5-(6-methyl-5-((2-(1-methyl-1H-pyrazol-4-yl)pyridin-4-yl)oxy)pyridin-2-yl)pyrimidin-4(3H)-one] | > 1 µM | > 1 µM | 0.01 to 0.1 µM | 
2 | Cc1nc(-c2cnc(N(C)C)[nH]c2=O)ccc1Oc1ccnc(-c2cnn(C)c2)c1 [Example 2, 2-(dimethylamino)-5-(6-methyl-5-((2-(1-methyl-1H-pyrazol-4-yl)pyridin-4-yl)oxy)pyridin-2-yl)pyrimidin-4(3H)-one] | > 1 µM | > 1 µM | 0.01 to 0.1 µM | 
3 | Cc1nc(-c2cnc(NC(C)C)[nH]c2=O)ccc1Oc1ccnc(-c2cnn(C)c2)c1 [Example 3, 2-(isopropylamino)-5-(6-methyl-5-((2-(1-methyl-1H-pyrazol-4-yl)pyridin-4-yl)oxy)pyridin-2-yl)pyrimidin-4(3H)-one] | > 1 µM | 0.1 to 1 µM | 0.01 to 0.1 µM | 
4 | CCNc1ncc(-c2ccc(Oc3ccnc(-c4ccc(C)nc4)c3)c(C)n2)c(=O)[nH]1 [Example 4, 2-(ethylamino)-5-(6-methyl-5-((6′-methyl-[2,3′-bipyridin]-4-yl)oxy)pyridin-2-yl)pyrimidin-4(3H)-one] | > 1 µM | > 1 µM | 0.1 to 1 µM | 
5 | CCNc1ncc(-c2ccc(Oc3ccnc(-n4cnc(C)c4)c3)c(C)n2)c(=O)[nH]1 [Example 5, 2-(ethylamino)-5-(6-methyl-5-((2-(4-methyl-1H-imidazol-1-yl)pyridin-4-yl)oxy)pyridin-2-yl)pyrimidin-4(3H)-one] | > 1 µM | > 1 µM | 0.1 to 1 µM | 
6 | CNc1ncc(-c2ccc(Oc3ccnc(-c4cnn(C)c4)c3)c(C)n2)c(=O)[nH]1 [Example 7, 5-(6-methyl-5-((2-(1-methyl-1H-pyrazol-4-yl)pyridin-4-yl)oxy)pyridin-2-yl)-2-(methylamino)pyrimidin-4(3H)-one] | > 1 µM | 0.1 to 1 µM | 0.1 to 1 µM | 
7 | CCNc1ncc(-c2ccc(Oc3ccnc(-c4cnn(C)c4)c3)cn2)c(=O)[nH]1 [Example 8, 2-(ethylamino)-5-(5-((2-(1-methyl-1H-pyrazol-4-yl)pyridin-4-yl)oxy)pyridin-2-yl)pyrimidin-4(3H)-one] | > 1 µM | 0.1 to 1 µM | 0.1 to 1 µM | 
8 | Cc1nc(-c2cnc(N3CCCC3)[nH]c2=O)ccc1Oc1ccnc(-c2cnn(C)c2)c1 [Example 9, 5-(6-methyl-5-((2-(1-methyl-1H-pyrazol-4-yl)pyridin-4-yl)oxy)pyridin-2-yl)-2-(pyrrolidin-1-yl)pyrimidin-4(3H)-one] | > 1 µM |  | 0.01 to 0.1 µM | > 1 µM
9 | CNC(=O)c1cc(Oc2ccc(-c3cnc(NC(C)C)[nH]c3=O)nc2)ccn1 [Example 11, 4-((6-(2-(isopropylamino)-6-oxo-1,6-dihydropyrimidin-5-yl)pyridin-3-yl)oxy)-N-methylpicolinamide] | > 1 µM | > 1 µM | 0.01 to 0.1 µM | 
10 | Cc1nc(-c2cnc(N3CCOCC3)[nH]c2=O)ccc1Oc1ccnc(-c2cnn(C)c2)c1 [Example 12, 5-(6-methyl-5-((2-(1-methyl-1H-pyrazol-4-yl)pyridin-4-yl)oxy)pyridin-2-yl)-2-morpholinopyrimidin-4(3H)-one] | > 1 µM | > 1 µM | 0.01 to 0.1 µM | 
11 | Cc1nc(-c2cnc(N3CCCCC3)[nH]c2=O)ccc1Oc1ccnc(-c2cnn(C)c2)c1 [Example 13, 5-(6-methyl-5-((2-(1-methyl-1H-pyrazol-4-yl)pyridin-4-yl)oxy)pyridin-2-yl)-2-(piperidin-1-yl)pyrimidin-4(3H)-one] | > 1 µM | > 1 µM | 0.01 to 0.1 µM | 
12 | Cc1nc(-c2cnc(NC3CC3)[nH]c2=O)ccc1Oc1ccnc(-c2cnn(C)c2)c1 [Example 14, 2-(cyclopropylamino)-5-(6-methyl-5-((2-(1-methyl-1H-pyrazol-4-yl)pyridin-4-yl)oxy)pyridin-2-yl)pyrimidin-4(3H)-one] | > 1 µM | > 1 µM | 0.01 to 0.1 µM | 
